Assays:
[1] = system: human subjects; assay: Clinical investigations on pardoprunox hydrochloride (general tolerability); assay type: in vivo
[2] = system: subjects with PD characterized by motor fluctuations; assay: Safety study S308.3.005, two titration schedules of pardoprunox as adjunctive treatment to L-dopa; assay type: in vivo, human
Experimental: In this study, primarily a safety study, 62 subjects with PD characterized by motor fluctuations were randomized to one of three different treatment arms, consisting of two pardoprunox treatment arms (total daily dose 0.3-42 mg three times daily [tid]; groups 1 [25 subjects] and 2 [26 subjects]) and one placebo arm [11 subjects]). The study included a seven-week ascending dose period of pardoprunox as adjunctive treatment to L-dopa. The effect of two different titration schedules was investigated on the safety and tolerability profile, as well as the need and time required for L-dopa dose and/or regimen adjustments (see Table 4). The difference between the two pardoprunox groups was in titration steps taken to achieve at the same time the main study dose levels, namely Group 1—weekly, larger dose increments versus Group 2—with every 3 and 4-days smaller dose steps to the same ‘end of week’ pardoprunox main doses. In the group with the more gradual titration more than 92% of the subjects (24 out of 26) reached doses of 18 mg/day or higher, and 65% (17 out of 26 subjects) reached the highest dose level of 42 mg/day.

[3] = system: early PD patients; assay: First pivotal study S308.3.001, fixed and flexible dose arms versus placebo; assay type: in vivo, human
Experimental: In the first pivotal study in early PD patients (study S308.3.001), the efficacy and safety of two fixed dose arms of pardoprunox (6 mg/day [n=115; Group 1] and 12 mg/day [n=118; Group 2]), and a flexible dose arm (12-42 mg/day [n=116; Group 3]) was compared to placebo (n=119) (see Table 6 for titration schedules used).

[4] = system: animal models; details: cited from earlier work
[5] = biological target: dopamine D2 receptor (Homo sapiens, UniProt P14416); details: cited from earlier work
[6] = biological target: T1, 5-HT1A (Homo sapiens, UniProt P08908); details: cited from earlier work
T1 sequence (P08908 1-422): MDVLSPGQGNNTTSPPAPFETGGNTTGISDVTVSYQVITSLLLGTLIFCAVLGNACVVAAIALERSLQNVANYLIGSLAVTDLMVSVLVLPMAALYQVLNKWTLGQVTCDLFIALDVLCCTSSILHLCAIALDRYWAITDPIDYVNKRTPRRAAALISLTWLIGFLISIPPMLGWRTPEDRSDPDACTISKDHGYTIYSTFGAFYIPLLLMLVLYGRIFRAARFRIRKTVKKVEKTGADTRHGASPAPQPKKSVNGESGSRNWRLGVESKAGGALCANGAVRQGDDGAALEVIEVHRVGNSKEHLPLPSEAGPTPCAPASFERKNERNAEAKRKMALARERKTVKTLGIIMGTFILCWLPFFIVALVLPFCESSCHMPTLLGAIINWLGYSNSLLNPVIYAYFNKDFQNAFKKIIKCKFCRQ

[7] = biological target: dopamine D3 receptor (Homo sapiens, UniProt P35462); details: cited from earlier work
[8] = system: subjects with early PD; assay: Double-blind, placebo-controlled proof of principle study S308.2.004, pardoprunox monotherapy; assay type: in vivo, human
Experimental: In a double-blind, placebo-controlled proof of principle (PoP) study (S308.2.004), the effects of pardoprunox on efficacy, safety and tolerability as monotherapy in early PD were investigated including 138 randomized and treated subjects. Following a fixed-flexible titration period (average length of 24 days), subjects were kept on maintenance dose levels for three weeks (9, 12, 15, 18, 24, 30, 36 or 45 mg/day). Study medication was taken orally three times daily (tid), in the morning, at noon and in the evening, with any missed doses not taken subsequently.
The dose of pardoprunox was progressively titrated from 0.3 mg/day to 9 mg/day according to a predefined schedule within 10 days, and to 30 mg/day within 20 days, by giving single dose unit or a combination of single dose unit. Daily doses were given over the day in the form of three dosage units. Up to the dose of 30 mg/day the titration was based on tolerability only, meaning that every next day (until step 10) or every other day (step 10-14) the dose was to be increased with one step if well-tolerated by the patient (see Table 3). […] From that moment, the patient had to stay on that lower dose level for 2 full days (at least 6 administrations) before trying the higher level again. The first administration of the higher dose had to be done in the morning. For a given titration step only one subsequent second attempt was allowed to reach the higher dose level. In total, three dose adjustments (on different titration steps) were allowed. If patients still could not reach a certain dose level after two sequential attempts and that dose level was below the minimum required dose level of 9 mg/day, they were not allowed to enter the maintenance phase. If a dose level of at least 9 mg/day has already been reached, they were allowed to maintain that dose level for the entire maintenance phase. Patients who reached the 30 mg/day dose could continue to escalate to 45 mg if tolerability allowed, and if further efficacy was expected. […]

dopamine D2 receptor, sequence (P14416 whole entry): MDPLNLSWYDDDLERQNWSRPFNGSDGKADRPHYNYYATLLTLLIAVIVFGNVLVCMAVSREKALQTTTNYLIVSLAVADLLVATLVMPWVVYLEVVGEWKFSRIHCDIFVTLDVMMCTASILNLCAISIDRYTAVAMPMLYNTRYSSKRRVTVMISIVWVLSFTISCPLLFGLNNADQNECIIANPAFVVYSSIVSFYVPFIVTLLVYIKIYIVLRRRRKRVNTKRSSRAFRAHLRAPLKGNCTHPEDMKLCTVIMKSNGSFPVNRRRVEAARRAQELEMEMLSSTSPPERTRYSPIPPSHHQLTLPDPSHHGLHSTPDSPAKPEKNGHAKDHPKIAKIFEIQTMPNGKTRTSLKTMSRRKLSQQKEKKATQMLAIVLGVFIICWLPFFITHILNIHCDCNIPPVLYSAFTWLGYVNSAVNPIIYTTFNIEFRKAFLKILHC
dopamine D3 receptor, sequence (P35462 whole entry): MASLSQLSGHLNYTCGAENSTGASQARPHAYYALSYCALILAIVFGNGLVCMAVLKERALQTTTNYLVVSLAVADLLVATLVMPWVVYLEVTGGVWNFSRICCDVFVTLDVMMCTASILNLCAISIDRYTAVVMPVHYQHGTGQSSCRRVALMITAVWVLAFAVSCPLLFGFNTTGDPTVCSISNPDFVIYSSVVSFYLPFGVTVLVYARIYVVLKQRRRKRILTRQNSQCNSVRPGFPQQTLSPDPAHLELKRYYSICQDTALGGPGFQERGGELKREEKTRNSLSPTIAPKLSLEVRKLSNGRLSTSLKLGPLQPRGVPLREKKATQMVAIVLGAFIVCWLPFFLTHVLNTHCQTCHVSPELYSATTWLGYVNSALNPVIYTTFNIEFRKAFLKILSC

CN1CCN(c2cccc3[nH]c(=O)oc23)CC1.Cl [pardoprunox hydrochloride, 7-(4-methyl)-1-piperazinyl-2(3H)-benzoxazolone hydrochloride]
tolerability ([1]; clinical investigations): well tolerated

CN1CCN(c2cccc3[nH]c(=O)oc23)CC1 [pardoprunox, 7-(4-methyl)-1-piperazinyl-2(3H)-benzoxazolone]
doses or titration steps not tolerated (defined as causing more than 20% drop outs) ([2]; 0.3-42 mg/day tid): no particular doses or titration steps that could not be tolerated | subjects who terminated the study due to treatment related Adverse Effects ([2]; between 18 and 30 mg/day, group with smaller dose increments (four subjects)): 15% | drop-out rate ([2]; group with the larger, weekly dose increments (Group 1) compared with Group 2 and placebo, FIG. 1): much higher drop-out rate | subjects who reached the highest dose level of 42 mg/day ([2]; group with the more gradual titration (Group 2), 17 out of 26 subjects): 65% | drop out rate due to treatment related Adverse Effects ([2]; up to the 18 mg/day dose, group with smaller dose increments): 4% | tolerability ([3]; 6 mg/day fixed dose group versus higher dose groups): better than that of the higher dose groups | primary outcome measure UPDRS motor score versus placebo ([3]; all active treatment arms: 6 mg/day, 12 mg/day, 12-42 mg/day): statistically superior to placebo | minimum effective dose ([3]; early PD patient population, conclusion from study): < 12 mg/day | anti-PD effect [4]: marked and long-lasting anti-PD effect | antidepressant and anxiolytic efficacy [4]: evidence of antidepressant and anxiolytic efficacy | agonist activity at dopamine D2 receptor [5]: partial dopamine D2 and D3 receptor agonist | tolerability ([1]; healthy human subjects): relatively well tolerated | agonist activity at 5-HT1A [6]: full 5-HT1A agonist activity | agonist activity at dopamine D3 receptor [7]: partial dopamine D2 and D3 receptor agonist | efficacy between subgroups treated with 9-15 mg/day, 18-30 mg/day and >30-45 mg/day ([8]; explorative evaluation, dose/effect plot): did not provide any clear differences in efficacy | subjects who reached the highest dose level of 45 mg/day ([8]; flexible titration based on tolerability, tid oral): approximately 16% | subjects treated with pardoprunox doses of ≧30 mg/day ([8]; flexible titration based on tolerability, tid oral, maintenance 9-45 mg/day): Approximately 40%

Source: patent US20090215796A1, “Compositions, Kits and Methods for a Titration Schedule for Pardoprunox Compounds” (Solvay Pharmaceuticals B.V., priority 2008, published 2009)
